Results taken from patent publication US9029414B2, “Triterpenoid compounds and methods of use thereof” (Biotechnology Research Corporation, priority 2008, dated 2015).

Key:
[1] = tested on: MOG-induced IL-17 in primary splenocytes; test: IL-17 Quantikine ELISA in primary splenocytes of EAE mice; format: cell-based; settings: exogenous compound 30 μM; for decrease of IL-17 in response to exogenous compound: splenocytes of compound-treated EAE mice (100 mg/kg); for reduction in the amount of IL-17: splenocytes of vehicle-treated EAE mice, MOG 25 μg/mL, 48 hrs
Experimental: On day 21, EAE mice were sacrificed by cervical dislocation and spleens were removed aseptically. The removed spleens were then cut with sterilized scissors and strained through […] mesh (BD Bioscience) with a plunger of 5 mL syringe (BD Bioscience) in 9 mL of RPMI 1640 (Invitrogen) with 100 U/mL penicillin and 100 μg/mL streptomycin (Sigma). The cell mixture was then added to 9 mL of Lympholyte (Cedarlane Laboratories) for gradient separation of splenocytes from red bloods cells by centrifugation at 1500 g for 20 min. After the centrifugation, the lympholyte layer containing splenocytes were carefully removed and washed with 10 mL of RPMI 1640 at 800 g for 10 min for three times. The isolated splenocytes were seeded onto different plate format and cultured with RPMI 1640 medium (Invitrogen) supplement with 10% heat inactivated fetal bovine serum (Invitrogen) and 100 U/mL penicillin and 100 μg/mL streptomycin at 37° C. CO2 incubator.
Splenocytes from EAE mice were cultured at the density of 1×10^6 cells in 12-well plates (Falcon) in the absence or presence of the MOG peptide (25 μg/mL) (Hooke Laboratories), DA001 and DA021 (30 μM) with RPMI 1640 medium (Invitrogen) supplement with 10% heat inactivated fetal bovine serum (Invitrogen) and 100 U/mL penicillin and 100 μg/mL streptomycin (Sigma) for 48 h. After 48 h, the supernatants were collected by pelleting the cells at 300 g for 10 min at 4° C. 50 μL of the each sample was added to the microtiter plate provided by the manufacturer of the Quantikine ELISA assay kit (R and D systems). Additional 50 μL of assay diluents buffer was added and incubated at room temperature for 2 h. […] Subsequently, 100 μL of stop solution was added to each well and the plate was read in 450 nm wavelength on a microplate reader (Dynex Revelation 2.2).
Cells were cultured in RPMI 1640 medium supplement with 10% heat inactivated fetal bovine serum and penicillin/streptomycin, in the absence or presence of MOG (25 μg/mL, Ex) with or without DA001 or DA021 (30 μM, Ex). […] The amount of IL-17 was calculated based on the standard curve established during the assay. […]
Cells were cultured in RPMI 1640 medium supplement with 10% heat inactivated fetal bovine serum and penicillin/streptomycin, in the absence or presence of MOG (25 μg/mL, Ex) with or without DA001 (30 μM, Ex). […] The amount of IL-17 was calculated based on the standard curve established during the assay. […]
Cells were cultured in RPMI 1640 medium supplement with 10% heat inactivated fetal bovine serum and penicillin/streptomycin, in the absence or presence of MOG (25 μg/mL, Ex) with or without DA021 (30 μM, Ex). […] The amount of IL-17 was calculated based on the standard curve established during the assay. […]

[2] = tested on: C57BL/6 mice immunized with MOG; test: Experimental autoimmune encephalomyelitis (EAE) behavioral scores; format: in vivo; settings: 100 mg/kg oral daily from day of immunization
Experimental: FIG. 15 illustrates that DA001 improves the behavioral scores of mice with experimental autoimmune encephalomyelitis. C57BL/6 mice were immunized subcutaneously at both sides of their hind limbs with myelin oligodendrocyte glycoprotein (MOG)/Complete Freund's Adjuvant (CFA) kit (Hooke Laboratories) and performed as indicated in the manufacturer's instruction. Albumin/CFA kit (Hooke Laboratories) were used as an immunization control. Oral administration of DA001 at 100 mg/kg was given daily starting from the day of immunization. The vehicle (water) was given to mice injected with MOG or albumin daily via oral administration. Animals were weighed and monitored daily and behavioral impairment was quantified based on the clinical scale. The graph presented here is a composite of four separate EAE trials. **=p≦0.01.
FIG. 16 illustrates that DA002 improves the behavioral scores of mice with experimental autoimmune encephalomyelitis. C57BL/6 mice were immunized subcutaneously at both sides of their hind limbs with myelin oligodendrocyte glycoprotein (MOG)/Complete Freund's Adjuvant (CFA) kit (Hooke Laboratories) and performed as indicated in the manufacturer's instruction. […] Animals were weighed and monitored daily and behavioral impairment was quantified based on the clinical scale. *=p≦0.05.
C57BL/6 mice were immunized subcutaneously at both sides of their hind limbs with myelin oligodendrocyte glycoprotein (MOG)/Complete Freund's Adjuvant (CFA) kit (Hooke Laboratories) and performed as in manufacturer's instruction. […] Animals were weighed and monitored daily and behavioral impairment was quantified based on the clinical scale. […]
On day 0, six-week old male C57BL/6 mice (Hong Kong University of Science and Technology, Animal Care facility) were immunized with 100 μg of myelin oligodendrocyte glycoprotein peptide (MOG35-55)/complete Freund's Adjuvant (CFA) emulsion kit (Hooke Laboratories) was injected subcutaneously at both sides of the tail base. […] The animals were also weighed and the neurological impairment was quantified daily based on the previously published criteria. […]

Row | SMILES | decrease of IL-17 in response to exogenous compound [1] | reduction in the amount of IL-17 [1] | EAE scores vs vehicle-treated EAE mice [2]
1 | C=C(C)[C@@H]1CC[C@]2(C(=O)O)CC[C@]3(C)C(CC[C@@H]4[C@@]5(C)CC[C@H](O[C@@H]6OC[C@H](O)[C@H](O)[C@H]6O[C@@H]6O[C@@H](C)[C@H](O)[C@@H](O)[C@H]6O)[C@@](C)(CO)[C@@H]5CC[C@]43C)[C@@H]12 (stereo partly drawn) [DA001, 3-O-[α-L-rhamnopyranosyl-(1→2)-α-L-arabinopyranosyl]-3,23-dihydroxy-20(29)-lupen-28-oic acid] | 51% | 65% | marked decrease in EAE scores
2 | C=C(C)[C@@H]1CC[C@]2(/C=N/O)CC[C@]3(C)C(CCC4[C@@]5(C)CCC(=O)[C@@](C)(CO)[C@@H]5CC[C@]43C)C12 (stereo partly drawn) [DA021] | 89% | 68% | marked decrease in the EAE scores
